The text below walks through data of US9409975B2, “Antibody binding microbial heparin binding motif to retard or prevent microbial biofilm formation on implanted medical devices” (priority 2012, dated 2016).

The test concerns C. albicans. The test is described as follows: Heparin-binding ELISA assay: C. albicans binding to solid-phase heparin, desulfated heparin analogs, chondroitin sulfate or dermatan sulfate. Format: cell-based, Candida albicans. The note with it: equimolar amounts with respect to heparin. As to the method:
To measure the binding of C. albicans to solid-phase heparin, a heparin-binding ELISA assay was developed, as follows. A single colony of each C. albicans wild type or mutant strain from a YPD plate was inoculated into 3 ml YPD medium and incubated overnight at 30° C. with shaking at 225 rpm. Sigma heparin (fresh solution made daily), diluted to 25 units/ml in autoclaved, sterile-filtered PBS was added as 0.1 ml aliquots to each well of an allyl amine-coated 96-well heparin binding microtiter plate (BD Biosciences). The plate was incubated at room temperature overnight in the dark (50). In the morning, the plate was washed with acetate buffer (100 mM NaCl, […], 0.2% Tween 20, pH 7.2), incubated with 3% bovine serum albumin (BSA) in PBS at 30° C. for 1 hour, then washed with PBS. In the meantime, overnight cultures of C. albicans were subcultured by dilution to OD600 of 0.2 in 25 ml of YPD, and grown at 30° C. to mid-log phase (OD600 0.6-0.7). […] After 45 minutes, absorbance at 595 nm was read on a Beckman Coulter DTX 880. […]
The ELISA assay used a commercially available 96-well microtiter plate coated with polymerized allylamine (BD Biosciences) (27), in which wells were inoculated with 2.5 units (12.5 μg) heparin in 100 μl phosphate buffered saline (PBS) per well. […] The color change was read spectrophotometrically at absorbance of 595 nm.

With chondroitin sulfate, the “binding of C. albicans versus binding to heparin, in words” value is “equivalent”.
With dermatan sulfate the entry was “reduced”.
